Columns and labels:
Type in all cases: in vivo
[1] = system: barnyardgrass (Echinochloa crus-galli); test: Test G Pre-Emergence Protocol; details: Echinochloa crus-galli, pre-emergence, 312 h, evaluated after 13 days; for pest or weed control at 15.625 g/ha: 15.625 g ai/ha, read-out: Barnyard grass damage rating (100=total damage to plant; 0=no damage to plant); for pest or weed control at 62.5 g/ha: 62.5 g ai/ha, 100=total damage to plant, 0=no damage to plant, read-out: plant damage rating, Barnyardgrass; for pest or weed control at 250 g/ha: 250 g ai/ha, read-out: Barnyardgrass damage rating (100=total damage to plant; 0=no damage to plant)
In short: (§1)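 One day after sowing, pots are treated with a spray of test compound formulated in acetone/water 50:50 plus 0.5% Tween 20, giving 15.625, 62.5 or 250 g/ha. Evaluation on a 0–100 damage scale follows 13 days of glasshouse growth.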

corn (Zea mays) [2] = test: Test G Pre-Emergence Protocol; details: Zea mays, pre-emergence, 312 h, evaluated after 13 days; for plant injury at 15.625 g/ha: 15.625 g ai/ha; for plant injury at 15.625 g/ha / plant injury at 250 g/ha: read-out: Corn damage rating (100=total damage to plant; 0=no damage to plant); for plant injury at 62.5 g/ha: 62.5 g ai/ha, 100=total damage to plant, 0=no damage to plant, read-out: plant damage rating, Corn; for plant injury at 250 g/ha: 250 g ai/ha
In short: as §1

[3] = system: ivy-leaved morning glory (Ipomoea hederacea); test: Test G Pre-Emergence Protocol; details: Ipomoea, pre-emergence, 312 h, evaluated after 13 days; for pest or weed control at 15.625 g/ha: 15.625 g ai/ha, read-out: Morning-glory, Ivy-leaved damage rating (100=total damage to plant; 0=no damage to plant); for pest or weed control at 62.5 g/ha: 62.5 g ai/ha, 100=total damage to plant, 0=no damage to plant, read-out: plant damage rating, Morningglory, Ivy-leaved; for pest or weed control at 250 g/ha: 250 g ai/ha, read-out: Morningglory, Ivy-leaved damage rating (100=total damage to plant; 0=no damage to plant)
In short: as §1

[4] = system: redroot pigweed (Amaranthus retroflexus); test: Test G Pre-Emergence Protocol; details: Amaranthus retroflexus, pre-emergence, 312 h, evaluated after 13 days; for pest or weed control at 15.625 g/ha: 15.625 g ai/ha; for pest or weed control at 15.625 g/ha / pest or weed control at 250 g/ha: read-out: Pigweed, Redroot damage rating (100=total damage to plant; 0=no damage to plant); for pest or weed control at 62.5 g/ha: 62.5 g ai/ha, 100=total damage to plant, 0=no damage to plant, read-out: plant damage rating, Pigweed, Redroot; for pest or weed control at 250 g/ha: 250 g ai/ha
In short: as §1

[5] = system: giant foxtail (Setaria faberi); test: Test G Pre-Emergence Protocol; details: Setaria faberi, pre-emergence, 312 h, evaluated after 13 days; for pest or weed control at 15.625 g/ha: 15.625 g ai/ha; for pest or weed control at 15.625 g/ha / pest or weed control at 250 g/ha: read-out: Foxtail, Giant damage rating (100=total damage to plant; 0=no damage to plant); for pest or weed control at 62.5 g/ha: 62.5 g ai/ha, 100=total damage to plant, 0=no damage to plant, read-out: plant damage rating, Foxtail, Giant; for pest or weed control at 250 g/ha: 250 g ai/ha
In short: as §1

[6] = system: velvetleaf (Abutilon theophrasti); test: Test G Pre-Emergence Protocol; details: Abutilon theophrasti, pre-emergence, 312 h, evaluated after 13 days; for pest or weed control at 15.625 g/ha: 15.625 g ai/ha; for pest or weed control at 15.625 g/ha / pest or weed control at 250 g/ha: read-out: Velvetleaf damage rating (100=total damage to plant; 0=no damage to plant); for pest or weed control at 62.5 g/ha: 62.5 g ai/ha, 100=total damage to plant, 0=no damage to plant, read-out: plant damage rating, Velvetleaf; for pest or weed control at 250 g/ha: 250 g ai/ha
In short: as §1

[7] = system: barnyardgrass (Echinochloa crus-galli); test: Test G Post-Emergence Protocol; details: Echinochloa crus-galli, post-emergence, 312 h; for pest or weed control at 15.625 g/ha: 15.625 g ai/ha, evaluated after 13 days (100=total damage to plant; 0=no damage to plant), read-out: Barnyardgrass damage rating; for pest or weed control at 62.5 g/ha: 62.5 g ai/ha, read-out: Barnyardgrass damage rating (100=total damage to plant; 0=no damage to plant); for pest or weed control at 62.5 g/ha / pest or weed control at 250 g/ha: evaluated after 13 days; for pest or weed control at 250 g/ha: 250 g ai/ha, read-out: damage to plant, Barnyardgrass (100=total damage to plant; 0=no damage to plant)
In short: (§2)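 Sow in soil; grow 8 d (24/16 °C, 14 h light, 65% humidity); spray 15.625/62.5/250 g/ha in acetone:water 50:50 + 0.5% Tween 20; grow on, water twice daily; score damage 0–100 at 13 d.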

corn (Zea mays) [8] = test: Test G Post-Emergence Protocol; details: Zea mays, post-emergence, 312 h; for plant injury at 15.625 g/ha: 15.625 g ai/ha, evaluated after 13 days (100=total damage to plant; 0=no damage to plant), read-out: Corn damage rating; for plant injury at 62.5 g/ha: 62.5 g ai/ha, read-out: Corn damage rating (100=total damage to plant; 0=no damage to plant); for plant injury at 62.5 g/ha / plant injury at 250 g/ha: evaluated after 13 days; for plant injury at 250 g/ha: 250 g ai/ha, read-out: damage to plant, Corn (100=total damage to plant; 0=no damage to plant)
In short: as §2

[9] = system: ivy-leaved morning glory (Ipomoea hederacea); test: Test G Post-Emergence Protocol; details: Ipomoea, post-emergence, 312 h; for pest or weed control at 15.625 g/ha: 15.625 g ai/ha, evaluated after 13 days (100=total damage to plant; 0=no damage to plant), read-out: Morningglory, Ivy-leaved damage rating; for pest or weed control at 62.5 g/ha: 62.5 g ai/ha, read-out: Morningglory, Ivy-leaved damage rating (100=total damage to plant; 0=no damage to plant); for pest or weed control at 62.5 g/ha / pest or weed control at 250 g/ha: evaluated after 13 days; for pest or weed control at 250 g/ha: 250 g ai/ha, read-out: damage to plant, Morningglory, Ivy-leaved (100=total damage to plant; 0=no damage to plant)
In short: as §2

[10] = system: redroot pigweed (Amaranthus retroflexus); test: Test G Post-Emergence Protocol; details: Amaranthus retroflexus, post-emergence, 312 h; for pest or weed control at 15.625 g/ha: 15.625 g ai/ha, evaluated after 13 days (100=total damage to plant; 0=no damage to plant), read-out: Pigweed, Redroot damage rating; for pest or weed control at 62.5 g/ha: 62.5 g ai/ha, read-out: Pigweed, Redroot damage rating (100=total damage to plant; 0=no damage to plant); for pest or weed control at 62.5 g/ha / pest or weed control at 250 g/ha: evaluated after 13 days; for pest or weed control at 250 g/ha: 250 g ai/ha, read-out: damage to plant, Pigweed, Redroot (100=total damage to plant; 0=no damage to plant)
In short: as §2

[11] = system: giant foxtail (Setaria faberi); test: Test G Post-Emergence Protocol; details: Setaria faberi, post-emergence, 312 h; for pest or weed control at 15.625 g/ha: 15.625 g ai/ha, evaluated after 13 days (100=total damage to plant; 0=no damage to plant), read-out: Foxtail, Giant damage rating; for pest or weed control at 62.5 g/ha: 62.5 g ai/ha, read-out: Foxtail, Giant damage rating (100=total damage to plant; 0=no damage to plant); for pest or weed control at 62.5 g/ha / pest or weed control at 250 g/ha: evaluated after 13 days; for pest or weed control at 250 g/ha: 250 g ai/ha, read-out: damage to plant, Foxtail, Giant (100=total damage to plant; 0=no damage to plant)
In short: as §2

[12] = system: velvetleaf (Abutilon theophrasti); test: Test G Post-Emergence Protocol; details: Abutilon theophrasti, post-emergence, 312 h; for pest or weed control at 15.625 g/ha: 15.625 g ai/ha, evaluated after 13 days (100=total damage to plant; 0=no damage to plant), read-out: Velvetleaf damage rating; for pest or weed control at 62.5 g/ha: 62.5 g ai/ha, read-out: Velvetleaf damage rating (100=total damage to plant; 0=no damage to plant); for pest or weed control at 62.5 g/ha / pest or weed control at 250 g/ha: evaluated after 13 days; for pest or weed control at 250 g/ha: 250 g ai/ha, read-out: damage to plant, Velvetleaf (100=total damage to plant; 0=no damage to plant)
In short: as §2

CN1C[C@H](c2ccc(C(F)(F)F)cc2)[C@@H](C(=O)Nc2nccc(C(F)(F)F)c2F)C1=O (racemic) [Compound 1436]
pest or weed control at 15.625 g/ha [1]: 0%
pest or weed control at 62.5 g/ha [1]: 0%
pest or weed control at 250 g/ha [1]: 0%
plant injury at 15.625 g/ha (corn (Zea mays) [2]): 0%
plant injury at 62.5 g/ha (corn (Zea mays) [2]): 0%
plant injury at 250 g/ha (corn (Zea mays) [2]): 0%
pest or weed control at 15.625 g/ha [3]: 0%
pest or weed control at 62.5 g/ha [3]: 0%
pest or weed control at 250 g/ha [3]: 0%
pest or weed control at 15.625 g/ha [4]: 0%
pest or weed control at 62.5 g/ha [4]: 0%
pest or weed control at 250 g/ha [4]: 0%
pest or weed control at 15.625 g/ha [5]: 0%
pest or weed control at 62.5 g/ha [5]: 0%
pest or weed control at 250 g/ha [5]: 0%
pest or weed control at 15.625 g/ha [6]: 0%
pest or weed control at 62.5 g/ha [6]: 0%
pest or weed control at 250 g/ha [6]: 0%
pest or weed control at 15.625 g/ha [7]: 0%
pest or weed control at 62.5 g/ha [7]: 0%
pest or weed control at 250 g/ha [7]: 0%
plant injury at 15.625 g/ha (corn (Zea mays) [8]): 0%
plant injury at 62.5 g/ha (corn (Zea mays) [8]): 0%
plant injury at 250 g/ha (corn (Zea mays) [8]): 0%
pest or weed control at 15.625 g/ha [9]: 0%
pest or weed control at 62.5 g/ha [9]: 0%
pest or weed control at 250 g/ha [9]: 0%
pest or weed control at 15.625 g/ha [10]: 0%
pest or weed control at 62.5 g/ha [10]: 0%
pest or weed control at 250 g/ha [10]: 0%
pest or weed control at 15.625 g/ha [11]: 0%
pest or weed control at 62.5 g/ha [11]: 0%
pest or weed control at 250 g/ha [11]: 0%
pest or weed control at 15.625 g/ha [12]: 0%
pest or weed control at 62.5 g/ha [12]: 0%
pest or weed control at 250 g/ha [12]: 0%

CCOC(=O)c1cccc([C@H]2CN(C)C(=O)[C@@H]2C(=O)Nc2ccccc2F)c1 (racemic) [Compound 1438]
pest or weed control at 15.625 g/ha [1]: 0%
pest or weed control at 62.5 g/ha [1]: 0%
pest or weed control at 250 g/ha [1]: 0%
plant injury at 15.625 g/ha (corn (Zea mays) [2]): 0%
plant injury at 62.5 g/ha (corn (Zea mays) [2]): 0%
plant injury at 250 g/ha (corn (Zea mays) [2]): 0%
pest or weed control at 15.625 g/ha [3]: 0%
pest or weed control at 62.5 g/ha [3]: 0%
pest or weed control at 250 g/ha [3]: 0%
pest or weed control at 15.625 g/ha [4]: 0%
pest or weed control at 62.5 g/ha [4]: 0%
pest or weed control at 250 g/ha [4]: 0%
pest or weed control at 15.625 g/ha [5]: 0%
pest or weed control at 62.5 g/ha [5]: 0%
pest or weed control at 250 g/ha [5]: 20%
pest or weed control at 15.625 g/ha [6]: 0%
pest or weed control at 62.5 g/ha [6]: 0%
pest or weed control at 250 g/ha [6]: 0%
pest or weed control at 15.625 g/ha [7]: 0%
pest or weed control at 62.5 g/ha [7]: 0%
pest or weed control at 250 g/ha [7]: 0%
plant injury at 15.625 g/ha (corn (Zea mays) [8]): 0%
plant injury at 62.5 g/ha (corn (Zea mays) [8]): 0%
plant injury at 250 g/ha (corn (Zea mays) [8]): 0%
pest or weed control at 15.625 g/ha [9]: 0%
pest or weed control at 62.5 g/ha [9]: 0%
pest or weed control at 250 g/ha [9]: 0%
pest or weed control at 15.625 g/ha [10]: 0%
pest or weed control at 62.5 g/ha [10]: 0%
pest or weed control at 250 g/ha [10]: 10%
pest or weed control at 15.625 g/ha [11]: 0%
pest or weed control at 62.5 g/ha [11]: 0%
pest or weed control at 250 g/ha [11]: 0%
pest or weed control at 15.625 g/ha [12]: 0%
pest or weed control at 62.5 g/ha [12]: 0%
pest or weed control at 250 g/ha [12]: 0%

— patent US12077503B2, “Substituted cyclic amides and their use as herbicides” (FMC CORPORATION, priority 2015, dated 2024)
